Results from patent publication US20240376163A1, “PEPTIDE FOR INHIBITING CALCINEURIN AND USE THEREOF” (Seoul National University R&DB Foundation, priority 2023, published 2024).
Where two headings read alike, the source gives them in different places.

How the values were obtained:
CNA [1] = conditions: SPR, CNA 1.25-10 nM
Experimental: Biacore T200 (Cytiva) was used to capture biotin-labeled peptides on the surface of Series S Sensor Chip SA (Cytiva). […] Each cycle was performed at 25° C. with 120 seconds of contact and 240 seconds of dissociation at a flow rate of 30 μl/min. The kinetics of the interaction were analyzed using BIAvaluation 3.2 RC1 (Cytiva).

CNA [2] = conditions: biotin-labeled peptides
Experimental: (§7) A His-pulldown assay was performed with 0.5 ml of IP150 buffer containing 0.5 mM EDTA. His-tagged CNA and GST-tagged peptides were mixed and captured on Ni-NTA agarose beads (Qiagen, Hilden, Germany). The beads were washed three times with binding buffer, and the proteins were analyzed by Western blotting. GST-tagged peptides were pulled down using Glutathione Sepharose™ 4 Fast Flow (Cytiva, Marlborough, MA, USA), and biotin-labeled peptides were pulled down using Streptavidin Agarose Resin (Thermo Fisher Scientific).

CNAβ2 [3] = molecular target: T1, CNAβ2 (Homo sapiens, UniProt P16298); experiment: Mammalian two-hybrid assay (GAL4 DBD-peptides, VP16 AD-CNAβ2, pG5-luc) in HEK293T cells; format: cell-based
T1 construct: expressed in transfected cells; host or cells: HEK293T
T1 sequence (P63098 2-170 partner limits assumed, other chains not shown): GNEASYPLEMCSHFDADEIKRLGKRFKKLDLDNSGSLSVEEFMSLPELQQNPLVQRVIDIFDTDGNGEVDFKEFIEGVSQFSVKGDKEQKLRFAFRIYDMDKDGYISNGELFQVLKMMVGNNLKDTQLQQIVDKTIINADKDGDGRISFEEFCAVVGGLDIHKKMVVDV
Experimental: (§1) To measure the transcriptional activity of NFAT, Jurkat T cells were cotransfected with GST-tagged peptides and NFAT-luc by electroporation. After 24 hours, the cells were pretreated with 0.5 μM FK506 for 1 hour and then treated with 40 nM PMA and 1 μM ionomycin for 8 hours. For mammalian two-hybrid assay, HEK293T cells were cotransfected with GAL4 DBD-tagged CABIN1, VIVIT, chimeric, and substituted peptides, VP16 activation domain-tagged CNAβ2, and pG5-luc (a luciferase reporter plasmid containing the GAL4 reaction promoter) for 24 hours. Harvested cells were lysed with luciferase assay lysis buffer (17 mM KH2PO4, 183 mM K2HPO4, pH 7.8, 0.2% [v/v] Triton X-100) and sonicated briefly. The luciferase activity against each cell lysate was measured using Infinite M200 (Tecan, Männedorf, and Switzerland). In addition, the expression level of the transfected protein was confirmed by Western blotting.

ERK2 = molecular target: T2, ERK2 (Homo sapiens, UniProt P28482); experiment: In vitro kinase assay; format: biochemical; conditions: purified GST-tagged peptide
T2 construct: purchased Proqinase GmbH (Freiburg, Germany)
T2 sequence (P28482 whole entry): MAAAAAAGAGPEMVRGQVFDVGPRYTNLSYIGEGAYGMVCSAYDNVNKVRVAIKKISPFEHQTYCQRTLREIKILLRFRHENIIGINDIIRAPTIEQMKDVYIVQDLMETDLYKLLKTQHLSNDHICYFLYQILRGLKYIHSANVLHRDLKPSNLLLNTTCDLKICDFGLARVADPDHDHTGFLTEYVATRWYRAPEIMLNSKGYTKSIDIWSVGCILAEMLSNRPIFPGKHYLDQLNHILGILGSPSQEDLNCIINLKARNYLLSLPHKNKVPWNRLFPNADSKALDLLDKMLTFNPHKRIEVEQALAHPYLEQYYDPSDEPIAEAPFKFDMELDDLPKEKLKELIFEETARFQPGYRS
Experimental: (§2) Purified GST-tagged peptides were used for the in vitro kinase assay using activated recombinant kinase obtained from Proqinase GmbH (Freiburg, Germany). Kinase reactions were induced in reaction buffer (50 mM HEPES-NaOH, pH 7.5, 3 mM MgCl2, 3 mM MnCl2, 3 μM sodium orthobanadate, 1 mM dithiothreitol, 50 μM unlabeled ATP, 5 μCi 32P-γ-ATP) for 1 hour at 30° C. The reaction was stopped by the addition of 5× sample buffer, and proteins were isolated using SDS-PAGE. The gels were stained with Coomassie Brilliant Blue, dried, and developed on X-ray film.

JNK1 = molecular target: T3, JNK1 (Homo sapiens, UniProt P45983); experiment: In vitro kinase assay; format: biochemical; conditions: purified GST-tagged peptide
T3 construct: purchased Proqinase GmbH (Freiburg, Germany)
T3 sequence (P45983 whole entry): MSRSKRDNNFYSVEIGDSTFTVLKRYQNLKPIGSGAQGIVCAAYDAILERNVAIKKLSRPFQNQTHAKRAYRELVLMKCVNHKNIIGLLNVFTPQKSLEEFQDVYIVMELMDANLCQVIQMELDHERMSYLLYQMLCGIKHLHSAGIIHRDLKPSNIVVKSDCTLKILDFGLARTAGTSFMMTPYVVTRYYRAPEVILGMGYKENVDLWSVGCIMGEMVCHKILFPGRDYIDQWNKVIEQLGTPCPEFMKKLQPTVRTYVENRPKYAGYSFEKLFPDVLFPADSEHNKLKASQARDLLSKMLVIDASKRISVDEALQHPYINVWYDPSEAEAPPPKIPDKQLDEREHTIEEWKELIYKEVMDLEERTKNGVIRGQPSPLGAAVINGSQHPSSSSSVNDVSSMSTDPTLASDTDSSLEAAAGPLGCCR
Experimental: as §2

p38a [4] = molecular target: T4, p38a (Homo sapiens, UniProt Q16539); experiment: In vitro kinase assay; format: biochemical; conditions: purified GST-tagged peptide
T4 sequence (Q16539 whole entry): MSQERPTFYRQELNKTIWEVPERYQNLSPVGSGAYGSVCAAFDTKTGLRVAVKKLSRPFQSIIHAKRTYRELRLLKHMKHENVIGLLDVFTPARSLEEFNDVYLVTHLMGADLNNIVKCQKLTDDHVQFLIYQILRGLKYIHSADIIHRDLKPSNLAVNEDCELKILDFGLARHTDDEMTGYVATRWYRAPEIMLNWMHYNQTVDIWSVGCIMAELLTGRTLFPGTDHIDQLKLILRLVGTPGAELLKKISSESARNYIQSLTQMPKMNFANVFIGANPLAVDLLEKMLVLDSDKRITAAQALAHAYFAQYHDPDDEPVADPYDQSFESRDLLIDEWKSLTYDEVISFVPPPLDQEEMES
Experimental: as §2

p38a [5] = molecular target: T4, p38a; experiment: p38 inhibitor treatment of Jurkat T cells expressing CABIN1 peptide, immunoprecipitation and Western blotting; format: cell-based; parameters: endogenous in cells; host or cells: Jurkat T (E6-1); conditions: 10 μM, 16 hours
Experimental: In FIG. 8A, Jurkat T cells expressing HA-mCherry-tagged CABIN1 peptide were treated with 40 nM PMA in a time-dependent manner. Phosphorylated threonine in peptides immunoprecipitated with HA antibody was detected with [PXpTP] antibody. […] In FIG. 8G, Jurkat T cells expressing HA-mCherry-tagged CABIN1 peptide were treated with 10 μM p38a inhibitor for 16 hours. Immunoprecipitation was performed with HA antibody and detected by Western blotting. In FIG. 8H, phosphorylated threonine and peptide-bound CNA in FIG. 8G were measured using ImageJ, and the ratio of phosphorylation and calcineurin bound to CABIN1 peptide was calculated (n=6). The values shown are mean±standard deviation. Statistical differences were determined using one-way analysis of variance. * p<0.05, ** p<0.01, *** p<0.001, CBB: Coomassie Brilliant Blue, NC: negative control.
Cells were lysed in IP150 buffer and immunoprecipitated Flag- and HA-tagged proteins using Anti-FLAG® M2 Affinity Gel (Sigma-Aldrich) and Pierce™ Anti-HA Agarose (Thermo Fisher Scientific), respectively. […] To quantify the Western blotting results, band regions were measured using ImageJ (https://imagej.nih.gov/ij/).

Jurkat T cells = experiment: DMOG treatment of Jurkat T cells expressing CABIN1 peptide, immunoprecipitation and Western blotting; format: cell-based
Experimental: In FIG. 6A, Jurkat T cells expressing HA-mCherry-tagged CABIN1 peptide were treated with DMOG for 12 hours in a dose-dependent manner. In FIG. 6B, Jurkat T cells expressing HA-mCherry-tagged CABIN1 peptide were treated with 500 μM DMOG over time. Each cell lysate was immunoprecipitated with HA antibodies, and CNA bound to CABIN1 peptides was detected by Western blotting. HIF-1α was used as a positive control for DMOG treatment. In FIG. 6C, HEK293T cells were transfected with GST-tagged peptides and subjected to GST pull-down assay. Hydroxyproline and O-linked glycosylation of each peptide were detected by Western blotting. NC: negative control.
(§3) Cells were lysed in IP150 buffer and immunoprecipitated Flag- and HA-tagged proteins using Anti-FLAG® M2 Affinity Gel (Sigma-Aldrich) and Pierce™ Anti-HA Agarose (Thermo Fisher Scientific), respectively. Conventional methods were used to construct the buffer and subsequent processes (Kim, H. J. et al. Nuclear Acids Res. 46, 6544-6560 (2018)). To quantify the Western blotting results, band regions were measured using ImageJ (https://imagej.nih.gov/ij/).

CNA [6] = experiment: Ka (1/MS)
Experimental: (§4) Table printed on a drawing sheet, FIG. 7G
Head of the field: Ka (1/MS)
(§5) FIG. 7A is the sequence of the CABIN1 peptide with a threonine to valine substitution (TV). […] In FIG. 7C, a luciferase reporter assay was performed to measure NFAT transcriptional activity in Jurkat T cells expressing GST-tagged CABIN1 peptides under PMA and ionomycin treatment (n=3). […] CNA bound to the peptide and phosphorylated threonine were detected by Western blotting. In FIG. 7E, phosphorylation of the 9th threonine of the CABIN1 peptide (threonine 2154 of full-length CABIN1) was detected by LC-MS/MS in Jurkat T cells. In FIG. 7F, an in vitro pull-down assay was performed using streptavidin-coupled agarose beads. CNA bound to the biotinylated peptide was detected with a His antibody. VEET peptide was used as a negative control. In FIG. 7G, CNA binding to biotinylated CABIN1 peptide according to the presence or absence of phosphorylation of the 9th threonine was measured by SPR. CNA concentration ranges are 1.25, 2.5, 5, and 10 nM. The kinetics of the interaction were calculated using the data of the CABIN1 peptide-captured cells minus the negative control peptide-captured cell. The values shown are mean±standard deviation. RU: […], NC: negative control.
(§6) First copying reader's note: SPR binding kinetics of the peptides to CNA; each cell holds the value together with its ± deviation. […]

CNA [7] = experiment: Kd (1/S)
Experimental: as §4
Head of the field: Kd (1/S)
as §5, §6

CNAβ2 [8] = molecular target: T1, CNAβ2; experiment: Immunoprecipitation assay of Flag-CNAβ2 and tagged peptides in HEK293T cells; format: cell-based
Experimental: as §3

CNA [9] = experiment: In vitro His-pull down assay with purified protein; format: binding
Experimental: as §7

[10] = system: NFAT transcriptional activity; experiment: NFAT luciferase reporter assay in Jurkat T cells expressing GST-tagged peptides; format: cell-based; conditions: PMA and ionomycin treatment
Experimental: as §1

Biotin-AAAMAGFPPEITVTPP {pTHR} P [phosphorylated CABIN1-L-1]
increase of binding affinity to CNA, phosphorylated vs unphosphorylated CABIN1 peptide (CNA [1]; listed as phosphorylated CABIN1 peptide): about three times
increase of binding affinity to CNA, phosphorylated vs unphosphorylated CABIN1 peptide (CNA [1]; listed as phosphorylated CABIN1 peptides): approximately three-fold
affinity for CNA (pull-down) (CNA [2]): dramatically increased the affinity for CNA

PVIVITPPTP [VIVIT PPTP]
improvement of interaction with CNA, VIVIT PPTP vs. VIVIT 10-mer (CNAβ2 [3]; C-terminus PPTP sequence): 4.76 fold
improvement of interaction with CNA, VIVIT PPTP vs. L-1-2 WT (CNAβ2 [3]; N-terminus PVIVIT): 1.93 fold
phosphorylation by ERK2 (ERK2): phosphorylate
phosphorylation by JNK1 (JNK1): phosphorylate
phosphorylation by p38a (p38a [4]): phosphorylate

MAGFPPEITVTPPTP [CABIN1-L-1] [listing 1 of 2 here]
binding to CNA (CNAβ2 [3]; GAL4 DBD-tagged peptides, VP16 activation domain-tagged CNA, HEK293T): significantly stronger affinity for CNA than CABIN1-14

Cc1ccccc1C(=O)c1ccc(Nc2ccc(Br)cc2N)cc1Cl [EO 1428]
binding affinity of CABIN1 peptide for CNA (p38a [5]): reducing binding affinity for CNA
phosphorylation of the CABIN1 peptide (p38a [5]): significantly reduced phosphorylation of the CABIN1 peptide

COC(=O)CNC(=O)C(=O)OC [DMOG, dimethyloxalylglycine]
interaction between CABIN1 peptide and CNA (Jurkat T cells; DMOG dose-dependent 12 hours or 500 μM over time): had no effect on the interaction between CABIN1 peptide and CNA
HIF-1α stabilization (Jurkat T cells; positive control for DMOG treatment): stabilized HIF-1α

MAGFPPEITVTPPTP [CABIN1-L-1] [listing 2 of 2 here]
association rate constant (kon) (CNA [6]): 2613.3±421.5 1/MS
dissociation rate constant (koff) (CNA [7]): 1.31e-3±6.1e-5 1/S

T6V: CABIN1 peptide with threonine 6 (threonine 2151 of full-length CABIN1) replaced with valine (PEITVVPPTP; left off: a dimerising Fc or GST; small tags and cut ends)
interaction with CNA in cells (CNAβ2 [8]): loss of interaction between the CABIN1 peptide and CNA in cells and in vitro
binding to CNA in vitro (CNA [9]): loss of interaction between the CABIN1 peptide and CNA in cells and in vitro

T9V: CABIN1 peptide with threonine 9 (threonine 2154 of full-length CABIN1) replaced with valine (PEITVTPPVP; left off: a dimerising Fc or GST; small tags and cut ends)
interaction with CNA in cells (CNAβ2 [8]): loss of interaction in cell experiments
NFAT transcriptional activity (luciferase activity) [10]: restored the transcriptional activity of NFAT inhibited by the wild-type CABIN1 peptide more efficiently than the T6V substitution
